Results as given in patent publication US5885995A, “Inhibitors of farnesyl-protein transferase” (Merck & Co., Inc., priority 1997, dated 1999).
Where a name gives a salt, the structure may show the parent alone.

Biological target: T1, human FPTase (Homo sapiens, UniProt P49354+P49356)
T1 construct: made in house
Experiment: In vitro inhibition of human farnesyl-protein transferase (FPTase)
Format: biochemical
Settings: [3H]-FPP, 100 nM Ras-CVIM, 30 min, read-out: IC50 (inhibitory activity against human FPTase)

With `N#Cc1ccc(Cn2cncc2CN2CCN(c3cccc(Cl)c3)CC2=O)cc1` [Example 1, 4-(3-Chlorophenyl)-1-[1-(4-cyanobenzyl)-5-imidazolylmethyl]-2-piperazinone hydrochloride] the IC50 was ≤ 10 µM.
